Measured values: publication PMC4071583, “Potent Cytotoxic Peptides from the Australian Marine Sponge Pipestela candelabra” (Marine Drugs, 2014)
Where two headings read alike, the source gives them in different places.

What was measured:
advanced solid tumors = test system: advanced solid tumors; design: method as in PMID 19096380; details: cited from earlier work
[1] = test system: Human prostate adenocarcinoma cells (PC3); experiment: Cytotoxicity assay (Alamar blue), human prostate cancer cells PC3; assay type: cell-based; details: for IC50: Homo sapiens, read-out: IC50 PC3
Procedure: (§1) Human prostate adenocarcinoma cells (PC3) and human neonatal foreskin fibroblast (noncancer cells, NFF) were grown in media RPMI-1640 (Life Technologies, Grand Island, NY, USA) supplemented with 10% foetal bovine serum (FBS). Cells were grown under 5% CO2 in a humidified environment at 37°C. Fifty microlitres of media containing 500 cells were added to a 384 well microtitre plate (Perkin Elmer, Waltham, MA, USA, part number: 6007660) containing 0.2 μL of a compound. Final compound concentration range tested was 10 μM to 1 pM (final DMSO concentration of 0.4%). Each concentration in media was tested in triplicate and in two independent experiments. Cells and compounds were then incubated in 72 h at 37 °C, 5% CO2 and 80% humidity. Cell proliferation was measured with the addition of 10 μL of a 60% Alamar blue (Invitrogen, Carlsbad, CA, USA) solution in media to each well of the microtitre plate to give a final concentration of 10% Alamar blue. The plates were incubated at 37 °C, 5% CO2 and 80% humidity within 24 h. The fluorescence of each well was read at excitation 535 nm and emission 590 nm on the Perkin Elmer EnVision Multilabel Reader 2104. Eight-point concentration response curves were then analysed using non-linear regression and IC50 values determined by using GraphPad Prism 5 (GraphPad Software Inc., La Jolla, CA, USA). Paclitaxel and doxorubicin were used during each screening as positive control compounds.

[2] = test system: human neonatal foreskin fibroblast (noncancer cells, NFF); experiment: Cytotoxicity assay (Alamar blue), human neonatal foreskin fibroblast non-cancer cells NFF; assay type: cell-based; details: for IC50: read-out: IC50 NFF
Procedure: as §1

[3] = test system: murine leukemia L1210 cell line; design: method as in doi:10.1016/0040-4039(90)87015-R; details: cited from earlier work
[4] = Auto-oxidation on storage, LC/MS analysis; assay type: physicochemical; details: dried compound stored at room temperature for a few months
Description: We noticed that the dried milnamides A (5) and E (1) changed from white powders to yellow powders when the compounds were stored at room temperature for a few months. […] As in the previous study, we are unable to determine if milnamides A (5) and E (1) are naturally occurring or produced by auto-oxidation.

[5] = design: method as in PMID 15547903; details: cited from earlier work
[6] = test system: human xenograft cancer models; design: method as in PMID 19825803; details: many human xenograft cancer models; cited from earlier work
[7] = PC-3, PC3 cells, 72 h incubation, Alamar blue, mean of two independent experiments in triplicate
[8] = NFF cells, 72 h incubation, Alamar blue, mean of two independent experiments in triplicate

| Structure (SMILES) | IC50 ([1]; PC-3, 72 h) [nM] | IC50 ([2]; NFF, 72 h) [nM] | also measured |
| --- | --- | --- | --- |
| CN[C@H](C(=O)N[C@H](C(=O)N(C)[C@H](/C=C(\C)C(=O)O)C(C)C)C(C)(C)C)C(C)(C)c1ccccc1 [HTI-286] | – | – | common toxicities observed (advanced solid tumors): neutropaenia, nausea, alopecia, and pain; objective responses (advanced solid tumors; phase II trial halted): no objective responses |
| CC(=CC(C(C)C)N(C)C(=O)C(NC(=O)C1[N+](C)=Cc2[nH]c3ccccc3c2C1(C)C)C(C)(C)C)C(=O)O (stereo not shown) [Compound 3, milnamide G] | 2870 | – | inhibition at 10 µM ([2]; NFF, read-out: % Inhibition NFF): 39% |
| C/C1=C\[C@@H](C)C[C@@H](C)OC(=O)[C@@H](C)NC(=O)[C@H](Cc2ccc(O)c(I)c2)N(C)C(=O)CNC(=O)[C@H](C)C1 [Compound 10, geodiamolide D] | 33.1 | 99.1 | fold more potent than geodiamolide E (11) ([1]; PC3 cells, comparator 11): 4 fold; fold more active than geodiamolide F (12) ([1]; PC3 cells, comparator 12): 5 fold; IC50 [3]: 62.2 nM |
| C/C(=C\[C@H](C(C)C)N(C)C(=O)[C@@H](NC(=O)[C@H]1N(C)Cc2c(c3ccccc3n2C)C1(C)C)C(C)(C)C)C(=O)O [Compound 5, milnamide A] | 11 | 70.6 | fold more potent than milnamide C (6) ([1]; PC3 cells, comparator 6): 3 fold; fold more potent than milnamide C (7) ([1]; PC3 cells, comparator 7): 35 fold; milnamide D (7) or G (3) formed by auto-oxidation (LC/MS) [4]: 5%–10%; auto-oxidation while standing in chloroform [5]: auto-oxidized slowly to milamide D (7) |
| CC(=CC(C(C)C)N(C)C(=O)C(NC(=O)C1N(C)C(=O)c2[nH]c3ccccc3c2C1(C)C)C(C)(C)C)C(=O)O (stereo not shown) [Compound 2, milnamide F] | 2180 | 5650 | – |
| C/C1=C\[C@@H](C)C[C@@H](C)OC(=O)[C@@H](C)NC(=O)[C@H](Cc2ccc(O)c(Br)c2)N(C)C(=O)CNC(=O)[C@H](C)C1 [Compound 11, geodiamolide E] | 118 | 425 | IC50 [3]: 24.2 nM |
| COc1cccc2c1C(=O)c1c(O)c3c(c(O)c1C2=O)C[C@@](O)(C(=O)CO)C[C@@H]3O[C@H]1C[C@H](N)[C@H](O)[C@H](C)O1 [Doxorubicin, doxorubicin, reference compound] | – | – | IC50 [1, 7]: 359 nM; IC50 [2, 8]: 530 nM |
| C/C(=C\[C@H](C(C)C)N(C)C(=O)[C@@H](NC(=O)[C@H]1[N+](C)=Cc2c(c3ccccc3n2C)C1(C)C)C(C)(C)C)C(=O)O [Compound 7, milnamide D] | 381 | 1190 | – |
| CC(=O)O[C@H]1C(=O)[C@@]2(C)[C@H]([C@H](OC(=O)c3ccccc3)[C@]3(O)C[C@H](OC(=O)[C@H](O)[C@@H](NC(=O)c4ccccc4)c4ccccc4)C(C)=C1C3(C)C)[C@]1(OC(C)=O)CO[C@@H]1C[C@@H]2O [Taxol, Paclitaxel, reference compound] | – | – | IC50 [1, 7]: 2.26 nM; IC50 [2, 8]: 3.94 nM |
| CNC(C(=O)NC(C(=O)N(C)C(C=C(C)C(=O)O)C(C)C)C(C)(C)C)C(C)(C)c1cn(C(O)C(=O)NC(C(=O)N(C)C(C=C(C)C(=O)O)C(C)C)C(C)(C)C)c2ccccc12 (stereo not shown) [Compound 4, hemiasterlin D] | 2.2 | 8.16 | – |
| C/C(=C\[C@H](C(C)C)N(C)C(=O)[C@@H](NC(=O)[C@H]1CCCCN1C(C)C)C(C)(C)C)C(=O)O [Compound E7974] | – | – | in vivo antitumor efficacy [6]: strong in vivo antitumor efficacy |
| CC(=CC(C(C)C)N(C)C(=O)C(NC(=O)C1N(C)Cc2[nH]c3ccccc3c2C1(C)C)C(C)(C)C)C(=O)O (stereo not shown) [Compound 1, milnamide E] | 34.2 | 123 | milnamide D (7) or G (3) formed by auto-oxidation (LC/MS) [4]: 5%–10% |
| CN[C@H](C(=O)N[C@H](C(=O)N(C)[C@H](/C=C(\C)C(=O)O)C(C)C)C(C)(C)C)C(C)(C)c1cn(C)c2ccccc12 [Compound 8, hemiasterlin] | 0.0484 | 0.404 | fold more cytotoxic than hemiasterlin A (9) ([1]; comparator 9): six-fold |
| C/C(=C\[C@H](C(C)C)N(C)C(=O)[C@@H](NC(=O)[C@H]1N(C)C(=O)c2c(c3ccccc3n2C)C1(C)C)C(C)(C)C)C(=O)O [Compound 6, milnamide C] | 31.7 | 188 | – |
| C/C1=C\[C@@H](C)C[C@@H](C)OC(=O)[C@@H](C)NC(=O)[C@H](Cc2ccc(O)c(Cl)c2)N(C)C(=O)CNC(=O)[C@H](C)C1 [Compound 12, geodiamolide F] | 155 | 708 | IC50 [3]: 11.2 nM |
